Results: patent US10800741B2 (ANCUREALL PHARMACEUTICAL (SHANGHAI) CO., LTD., priority 2017, dated 2020)
Like-named read-outs stand apart in the source and are kept apart here.

Experiments:
Format in all cases: cell-based, Human
H1581 (FGFR1 amp) = experiment: In vitro growth inhibition of H1581 tumor cells (MTT/CCK8); details: in vitro growth inhibition (or induction of apoptosis), cells cultured 3 to 5 days, MTT (CCK8), read-out: IC50 H1581 (FGFR1 amp)
KATO III (FGFR2 amp) = experiment: In vitro growth inhibition of KATO III tumor cells (MTT/CCK8); details: in vitro growth inhibition (or induction of apoptosis), cells cultured 3 to 5 days, MTT (CCK8), read-out: IC50 KATO III (FGFR2 amp)
Hep3B2 (FGFR3/4+++) = experiment: In vitro growth inhibition of Hep3B2 tumor cells (MTT/CCK8); details: in vitro growth inhibition (or induction of apoptosis), cells cultured 3 to 5 days, MTT (CCK8), read-out: IC50 Hep3B2 (FGFR3/4+++)
MOLM-13 (FLT3-ITD) = experiment: In vitro growth inhibition of MOLM-13 tumor cells (MTT/CCK8); details: in vitro growth inhibition (or induction of apoptosis), cells cultured 3 to 5 days, MTT (CCK8), read-out: IC50 MOLM-13 (FLT3-ITD)
KCL-22 (BCR-ABL) = experiment: In vitro growth inhibition of KCL-22 tumor cells (MTT/CCK8); details: in vitro growth inhibition (or induction of apoptosis), cells cultured 3 to 5 days, MTT (CCK8), read-out: IC50 KCL-22 (BCR-ABL)
Kasumi-1 (KIT N822K) = experiment: In vitro growth inhibition of Kasumi-1 tumor cells (MTT/CCK8); details: in vitro growth inhibition (or induction of apoptosis), cells cultured 3 to 5 days, MTT (CCK8), read-out: IC50 Kasumi-1 (KIT N822K)
H1703 (PDGFRa amp) = experiment: In vitro growth inhibition of H1703 tumor cells (MTT/CCK8); details: in vitro growth inhibition (or induction of apoptosis), cells cultured 3 to 5 days, MTT (CCK8), read-out: IC50 H1703 (PDGFRa amp)
Karpas 299 (NPM-ALK) = experiment: In vitro growth inhibition of Karpas 299 tumor cells (MTT/CCK8); details: in vitro growth inhibition (or induction of apoptosis), cells cultured 3 to 5 days, MTT (CCK8), read-out: IC50 Karpas 299 (NPM-ALK)

IC50 (H1581 (FGFR1 amp); Homo sapiens, NCI-H1581) | IC50 (KATO III (FGFR2 amp); Homo sapiens, KATO III) | IC50 (Hep3B2 (FGFR3/4+++); Homo sapiens, Hep3B) | IC50 (MOLM-13 (FLT3-ITD); Homo sapiens, MOLM-13) | IC50 (KCL-22 (BCR-ABL); Homo sapiens, KCL-22) | IC50 (Kasumi-1 (KIT N822K); Homo sapiens, Kasumi 1) | IC50 (H1703 (PDGFRa amp); Homo sapiens, NCI-H1703) | IC50 (Karpas 299 (NPM-ALK); Homo sapiens, KARPAS-299) | SMILES | IC50 (H1581 (FGFR1 amp)) | IC50 (KATO III (FGFR2 amp)) | IC50 (Hep3B2 (FGFR3/4+++)) | IC50 (MOLM-13 (FLT3-ITD)) | IC50 (KCL-22 (BCR-ABL)) | IC50 (Kasumi-1 (KIT N822K)) | IC50 (H1703 (PDGFRa amp)) | IC50 (Karpas 299 (NPM-ALK))
 |  |  |  |  |  |  |  | CC(C)(C)c1cc(NC(=O)Nc2ccc(Oc3ccnc4cc(OCCN5CCOCC5)c(C(N)=O)cc34)cc2Cl)[nH]n1 [Compound 81, 4-{4-[3-(5-tert-butyl-2H-pyrazol-3-yl)-ureido]-3-chloro-phenoxy}-7-(2-morpholin-4-yl-ethoxy) pyridine-6-carboxamide] | 4.94 nM | 0.31 nM | 44.7 nM | 11.9 nM | 34.9 nM | 26.7 nM | 11.3 nM | 466 nM
3.61 nM | 2.94 nM | 23.9 nM | 1.7 nM | 20.6 nM | 5.21 nM | 9.43 nM | 174 nM | CN1CCN(CCCOc2cc3nccc(Oc4ccc(NC(=O)Nc5cc(C(C)(C)C)n[nH]5)c(Cl)c4)c3cc2C(N)=O)CC1 [Compound 82, 4-{4-[3-(5-tert-butyl-2H-pyrazol-3-yl)-ureido]-3-chloro-phenoxy}-7-[3-(4-methyl-piperazin-1-yl)-propoxy]-quinolin-6-carboxamide] |  |  |  |  |  |  |  | 
92.9 nM | 5.94 nM | 150 nM | 15.3 nM | 190 nM | 260 nM | 59.5 nM | 851 nM | CN(C)CCOc1cc2nccc(Oc3ccc(NC(=O)Nc4cc(C(C)(C)C)n[nH]4)c(Cl)c3)c2cc1C(N)=O [Compound 83] |  |  |  |  |  |  |  | 
114 nM | 6.09 nM | 148 nM | 35.2 nM | 287 nM | 240 nM | 127 nM | > 1000 nM | CC(C)(C)c1cc(NC(=O)Nc2ccc(Oc3ccnc4cc(OCCN5CCCCC5)c(C(N)=O)cc34)cc2Cl)[nH]n1 [Compound 84, 4-{4-[3-(5-tert-butyl-2H-pyrazol-3-yl)-ureido]-3-chloro-phenoxy}-7-(2-piperidin-1-yl-ethoxy)-quinolin-pyridine-6-carboxamide] |  |  |  |  |  |  |  | 
14.2 nM | 1.92 nM | 16.8 nM | 2.83 nM | 33.1 nM | 6.49 nM | 14 nM | 263 nM | COCCN1CCN(CCCOc2cc3nccc(Oc4ccc(NC(=O)Nc5cc(C(C)(C)C)n[nH]5)c(Cl)c4)c3cc2C(N)=O)CC1 [Compound 85, 4-{4-[3-(5-tert-butyl-2H-pyrazol-3-yl)-ureido]-3-chloro-phenoxy}-7-{3-[4-(2-methoxy-ethyl)-piperazin-1-yl]-propoxy}-quinolin-6-carboxamide] |  |  |  |  |  |  |  | 
146 nM | 17.5 nM | 232 nM | 28.9 nM | 67.5 nM | 182 nM | 453 nM | 749 nM | CC(C)(C)c1cc(NC(=O)Nc2ccc(Oc3ccnc4cc(O)c(C(N)=O)cc34)c(Cl)c2Cl)[nH]n1 [Compound 92, 4-{4-[3-(5-tert-butyl-2H-pyrazol-3-yl)-ureido]-2,3-dichloro-phenoxy}-7-hydroxy-quinolin-6-carboxamide] |  |  |  |  |  |  |  | 
210 nM | 3.53 nM | 9.84 nM | 10.3 nM | 6.12 nM | 8.29 nM | 79.3 nM | 178 nM | CN(C)CCOc1cc2nccc(Oc3ccc(NC(=O)Nc4cc(C(C)(C)C)n[nH]4)c(Cl)c3Cl)c2cc1C(N)=O [Compound 93, 4-{4-[3-(5-tert-butyl-2H-pyrazol-3-yl)-ureido]-2,3-dichloro-phenoxy}-7-(2-dimethylamino-ethoxy)carboxamide] |  |  |  |  |  |  |  | 
4.17 nM | 0.89 nM | 10.6 nM | 1.61 nM | 3.66 nM | 4.22 nM | 5.03 nM | 65 nM | CC(C)(C)c1cc(NC(=O)Nc2ccc(Oc3ccnc4cc(OCCN5CCOCC5)c(C(N)=O)cc34)c(Cl)c2Cl)[nH]n1 [Compound 94, 4-{4-[3-(5-tert-butyl-2H-pyrazol-3-yl)-ureido]-2,3-dichloro-phenoxy}-7-(2-morpholin-4-yl-ethoxy)-quinolin-6-carboxamide] |  |  |  |  |  |  |  | 
38 nM | 1.72 nM | 36.6 nM | 7.23 nM | 10.2 nM | 31.4 nM | 45 nM | > 1000 nM | CC(C)(C)c1cc(NC(=O)Nc2ccc(Oc3ccnc4cc(OCCN5CCCCC5)c(C(N)=O)cc34)c(Cl)c2Cl)[nH]n1 [Compound 96, 4-{4-[3-(5-tert-butyl-2H-pyrazol-3-yl)-ureido]-2,3-dichloro-phenoxy}-7-(2-piperidin-1-yl-ethoxy)-quinolin-6-carboxamide] |  |  |  |  |  |  |  | 
254 nM | 117 nM | 456 nM | 0.8 nM | 122 nM | > 1000 nM | 342 nM | 803 nM | COc1cc2nccc(Nc3ccc(NC(=O)Nc4cc(C(C)(C)C)n[nH]4)cc3Cl)c2cc1C(N)=O [Compound 97, 4-{4-[3-(5-tert-butyl-2H-pyrazol-3-yl)-ureido]-2-chloro-phenylamino}-7-methoxy-quinolin-6-carboxamide] |  |  |  |  |  |  |  | 
433 nM | 270 nM | 843 nM | 6 nM | > 1000 nM | > 1000 nM | 605 nM | > 1000 nM | COc1cc2nccc(Nc3ccc(NC(=O)Nc4cc(C(C)(C)C)n[nH]4)cc3C)c2cc1C(N)=O [Compound 98, 4-{4-[3-(5-tert-butyl-2H-pyrazol-3-yl)-ureido]-2-methyl-phenylamino}-7-methoxy-quinolin-6-carboxamide] |  |  |  |  |  |  |  | 
294 nM | 37.8 nM | 862 nM | 3.41 nM | 264 nM | 355 nM | 128 nM | > 1000 nM | COc1cc2nccc(Nc3ccc(NC(=O)Nc4cc(C(C)(C)C)on4)cc3C)c2cc1C(N)=O [Compound 99, 4-{4-[3-(5-tert-butyl-isoxazol-3-yl)-ureido]-2-methyl-phenylamino}-7-methoxy-quinolin-6-carboxamide] |  |  |  |  |  |  |  | 
271 nM | 49.7 nM | > 1000 nM | 1.01 nM | 694 nM | > 1000 nM | 202 nM | 838 nM | COc1cc2nccc(Nc3ccc(NC(=O)Nc4cc(C(C)(C)C)on4)cc3Cl)c2cc1C(N)=O [Compound 100, 4-{4-[3-(5-tert-butyl-isoxazol-3-yl)-ureido]-2-chloro-phenylamino}-7-methoxy-quinolin-6-carboxamide] |  |  |  |  |  |  |  | 
9.56 nM | 2.34 nM | 110 nM | 0.08 nM | 11 nM | 24.1 nM | 61.3 nM | 64.3 nM | COc1cc2nccc(Oc3ccc(NC(=O)Nc4cc(C(C)(C)C)n[nH]4)cc3Cl)c2cc1NC(C)=O [Compound 101, N-(4-{4-[3-(5-tert-butyl-2H-pyrazol-3-yl)-ureido]-2-chloro-phenoxy}-7-methoxy-quinolin-6-yl)-acetamide] |  |  |  |  |  |  |  | 
24.2 nM | 4.17 nM | 191 nM | 0.15 nM | 12.1 nM | 14.6 nM | 86.7 nM | 350 nM | COc1cc2nccc(Oc3ccc(NC(=O)Nc4cc(C(C)(C)C)n[nH]4)cc3C)c2cc1NC(C)=O [Compound 103, N-(4-{4-[3-(5-tert-butyl-2H-pyrazol-3-yl)-ureido]-2-methyl-phenoxy}-7-methoxy-quinolin-6-yl)-acetamide] |  |  |  |  |  |  |  | 
160 nM | 40.1 nM | 526 nM | 1.17 nM | > 1000 nM | > 1000 nM | 163 nM | 768 nM | COc1cc2nccc(Oc3ccc(NC(=O)Nc4cc(C(C)(C)C)n[nH]4)cn3)c2cc1NC(C)=O [Compound 104, N-(4-{5-[3-(5-tert-butyl-2H-pyrazol-3-yl)-ureido]-pyridin-2-yloxy}-7-methoxy-quinolin-6-yl)-acetamide] |  |  |  |  |  |  |  | 
